Results on one compound are retold here after paper PMC9783573, “Introduction of a SiFA Moiety into the D-Glutamate Chain of DOTA-PP-F11N Results in Radiohybrid-Based CCK-2R-Targeted Compounds with Improved Pharmacokinetics In Vivo” (Pharmaceuticals, 2022).

Where two headings read alike, the source gives them in different places.

The data set in a line: in vivo. Also on record: species or system mice. The settings on record: mouse, 24 h p.i. As for the experimental part: For biodistribution studies, the ^177Lu-labelled compound (approx. 2–3 MBq, 100 pmol) was injected into a lateral tail vein (n = 4) of anesthetised (2% isoflurane) AR42J tumour-bearing CB-17-SCID mice. At 24 h post-injection (p.i.), the mice were euthanised. Thereafter, the pertinent organs were removed, weighed and measured using a γ-counter.
For all competition studies, 2.90 mg/kg (40 nmol) of [^natLu]Lu-DOTA-MGS5 (10^−3 M in phosphate-buffered saline) were co-administered.
Figure S4. (a) Biodistribution of [177Lu]Lu-DOTA-rhCCK-16 (100 pmol) co-injected with [natLu]Lu-DOTA-MGS5
(40 nmol) in selected organs (%ID/g) at 24 h p.i. in AR42J tumour-bearing CB17-SCID mice. Data is expressed as
mean ± SD (n = 2). (b) Representative µSPECT/CT images of [177Lu]Lu-DOTA-rhCCK-16 co-injected with [natLu]Lu-
DOTA-MGS5 (40 nmol) at 24 h p.i. in AR42J tumour-bearing CB17- SCID mice.
(1 picture or pasted object on this page, not shown here)

For the compound `CCCC[C@H](NC(=O)[C@H](Cc1c[nH]c2ccccc12)NC(=O)CNC(=O)[C@H](Cc1ccc(O)cc1)NC(=O)[C@H](C)NC(=O)CC[C@@H](NC(=O)CC[C@@H](NC(=O)CC[C@@H](NC(=O)CC[C@@H](NC(=O)CC[C@@H](NC(=O)CC[C@@H](NC(=O)[C@@H](CNC(=O)c1ccc([Si](F)(C(C)(C)C)C(C)(C)C)cc1)NC(=O)CC[C@H](C(=O)O)N1CCN(CC(=O)O)CCN(CC(=O)O)CCN(CC(=O)O)CC1)C(=O)O)C(=O)O)C(=O)O)C(=O)O)C(=O)O)C(=O)O)C(=O)N[C@@H](CC(=O)O)C(=O)N[C@@H](Cc1ccccc1)C(N)=O` [[nat/177Lu]Lu-(R)-DOTAGA-rhCCK-16, metal not drawn], the tissue uptake at 24 h (CB17-SCID, iv, total radioactivity, competition, read-out: Activity levels in the stomach, co-injection of excess [natLu]Lu-DOTA-MGS5) was less than 0.3 %ID/g; the tissue uptake at 24 h (CB17-SCID, iv, total radioactivity, competition, read-out: activity levels in the tumour, co-injection of excess [natLu]Lu-DOTA-MGS5) was less than 1 %ID/g; the tissue uptake at 24 h (100 pmol + 40 nmol [natLu]Lu-DOTA-MGS5, n = 2, read-out: Biodistribution competition studies, Adrenal) was 0.4 ± 0.11 %ID/g; the tissue uptake at 24 h (100 pmol + 40 nmol [natLu]Lu-DOTA-MGS5, n = 2, read-out: Biodistribution competition studies, Blood) was found to be 0.05 %ID/g; the tissue uptake at 24 h (100 pmol + 40 nmol [natLu]Lu-DOTA-MGS5, n = 2, read-out: Biodistribution competition studies, Bone) turned out to be 0.24 ± 0.04 %ID/g; the tissue uptake at 24 h (100 pmol + 40 nmol [natLu]Lu-DOTA-MGS5, n = 2, read-out: Biodistribution competition studies, Heart) came to 0.13 ± 0.01 %ID/g. Further, the tissue uptake at 24 h is, setting by setting: (100 pmol + 40 nmol [natLu]Lu-DOTA-MGS5, n = 2, read-out: Biodistribution competition studies, Intestine) 0.16 ± 0.03 %ID/g; (100 pmol + 40 nmol [natLu]Lu-DOTA-MGS5, n = 2, read-out: Biodistribution competition studies, Kidney) 105 ± 21 %ID/g; (100 pmol + 40 nmol [natLu]Lu-DOTA-MGS5, n = 2, read-out: Biodistribution competition studies, Liver) 2.31 ± 0.66 %ID/g; (100 pmol + 40 nmol [natLu]Lu-DOTA-MGS5, n = 2, read-out: Biodistribution competition studies, Lung) 2.59 ± 1.27 %ID/g; (100 pmol + 40 nmol [natLu]Lu-DOTA-MGS5, n = 2, read-out: Biodistribution competition studies, Muscle) 0.06 ± 0.04 %ID/g; (100 pmol + 40 nmol [natLu]Lu-DOTA-MGS5, n = 2, read-out: Biodistribution competition studies, Pancreas) 0.2 ± 0.01 %ID/g. For the same compound, the tissue uptake at 24 h (100 pmol + 40 nmol [natLu]Lu-DOTA-MGS5, n = 2, read-out: Biodistribution competition studies, Spleen) came to 1.73 ± 0.01 %ID/g; the tissue uptake at 24 h (100 pmol + 40 nmol [natLu]Lu-DOTA-MGS5, n = 2, read-out: Biodistribution competition studies, Stomach) stood at 0.15 ± 0.04 %ID/g; the tissue uptake at 24 h (100 pmol + 40 nmol [natLu]Lu-DOTA-MGS5, n = 2, read-out: Biodistribution competition studies, Tumour) stood at 0.91 ± 0.04 %ID/g.
